# Laboratory results from US7166609B2, “Pyrimidine-4,6-dicarboxylic acid diamides for selectively inhibiting collagenases” (Sanofi-Aventis Deutschland GmbH, priority 2002, dated 2007).
# Target: T1, catalytic domain of human collagenase 3 (MMP-13) (Homo sapiens, UniProt P45452)
# T1 construct: Determining the enzyme activity of the catalytic domain of human collagenase 3 (MMP-13); purchased INVITEK, Berlin 30 100 803
# Assay: Enzyme activity of the catalytic domain of human collagenase 3 (MMP-13), fluorogenic substrate
# Type: biochemical
# Settings: not given
# Experimental: Determining the enzyme activity of the catalytic domain of human collagenase 3 (MMP-13).
# Activating the proenzyme:
# 2 parts by volume of proenzyme are incubated with 1 part by volume of APMA solution at 37° C. for 1.5 hours. The APMA solution is prepared from a 10 mmol/L solution of p-aminophenylmercuric acetate in 0.1 mmol/L NaOH by diluting with 3 parts by volume of tris/HCl buffer, pH 7.5 (see below). The pH is adjusted to between 7.0 and 7.5 by adding 1 mmol/L HCl. After the enzyme has been activated, it is diluted to a concentration of 1.67 μg/ml using the tris/HCl buffer.
# In order to measure the enzyme activity, 10 μL of enzyme solution are incubated for 15 minutes with 10 μL of a 3% (v/v) buffered solution of dimethyl sulfoxide (reaction 1). In order to measure the enzyme inhibitor activity, 10 μL of enzyme solution are incubated with 10 μL of a 3% (v/v) buffered solution of dimethyl sulfoxide containing the enzyme inhibitor (reaction 2).
# In the case of both reaction 1 and reaction 2, the enzyme reaction is monitored by fluorescence spectroscopy (328 nm (extinction)/393 nm (emission)) after adding 10 μL of a 3% (v/v) aqueous solution of dimethyl sulfoxide containing 0.75 mmol of the substrate/L.
# The enzyme activity is depicted as increase in extinction/minute.
# The effect of the inhibitor is calculated as a percentage inhibition using the following formula: % inhibition=100−[(increase in extinction/minute in reaction 2)/(increase in extinction/minute in reaction 1)×100].
# The IC50, i.e. the inhibitor concentration which is required for inhibiting the enzyme activity by 50%, is determined graphically by plotting the percentage inhibitions at different inhibitor concentrations.
# The buffer solution contains 0.05% Brij (Sigma, Deisenhofen, Germany) and 0.1 mol of tris/HCl/L, 0.1 mol of NaCl/L and 0.01 mol of CaCl2/L (pH=7.5). The enzyme solution contains 1.67 μg of the enzyme domain/mL.
# The substrate solution contains 0.75 mmol/L of the fluorogenic substrate (7-methoxycoumarin-4-yl)acetyl-Pro-Leu-Gly-Leu-3-(2′,4′-dinitrophenyl)-L-2,3-diaminopropionyl-Ala-Arg-NH2 (Bachem, Heidelberg, Germany).
row,Compound,IC50 [µM]
1,COc1cccc(CNC(=O)c2cc(C(=O)NCc3ccc(C(=O)N4CCC(=O)CC4)cc3)ncn2)c1 [Example 64],0.01
2,Cc1cc(CNC(=O)c2cc(C(=O)NCc3ccc(C(=O)N4CCC(=O)CC4)cc3)ncn2)ccc1F [Example 65],0.015
3,O=C1CCN(C(=O)c2ccc(CNC(=O)c3cc(C(=O)NCc4ccc5c(c4)CCO5)ncn3)cc2)CC1 [Example 66],0.01

# Same assay, conditions: catalytic domain, activated proenzyme, pH 7.5; read-out: IC50 MMP13
row,Compound,IC50 [µM]
1,"CCN(CC)C(=O)c1ccc(CNC(=O)c2cc(C(=O)NCc3cccc(OC)c3)ncn2)cc1 [Example 3, Pyrimidine-4,6-dicarboxylic acid 4-(4-diethylcarbamoylbenzylamide) 6-(3-methoxybenzylamide)]",0.004
2,"O=C(NCc1ccncc1)c1cc(C(=O)NCc2ccc3c(c2)CCO3)ncn1 [Example 4, Pyrimidine-4,6-dicarboxylic acid4-[(2,3-dihydrobenzofuran-5-ylmethyl)amide] 6-[(pyridin-4-ylmethyl)amide]]",0.02
3,"O=C(NCc1ccc(C(=O)N2CCOCC2)cc1)c1cc(C(=O)NCc2ccc3c(c2)CCO3)ncn1 [Example 5, Pyrimidine-4,6-dicarboxylic acid 4-[(2,3-dihydrobenzofuran-5-ylmethyl)amide]6-[4-(morpholine-4-carbonyl)benzylamide]]",0.008
4,COc1cccc(CNC(=O)c2cc(C(=O)NCc3ccc(NC(=O)OC(C)C)cc3)ncn2)c1 [Example 6],0.02
5,COc1cccc(CNC(=O)c2cc(C(=O)NCc3ccc(C(=O)NCCN4CCOCC4)cc3)ncn2)c1 [Example 36],0.01
6,O=C(NCc1ccc2c(c1)CCO2)c1cc(C(=O)NCc2cccs2)ncn1 [Example 39],0.03
7,O=C(NCc1cccnc1)c1cc(C(=O)NCc2ccc3c(c2)OCCO3)ncn1 [Example 44],0.2
8,CCCNC(=O)c1ccc(CNC(=O)c2cc(C(=O)NCc3cccc(OC)c3)ncn2)cc1 [Example 62],0.013
9,CS(=O)(=O)NC(=O)Nc1ccc(CNC(=O)c2cc(C(=O)NCc3ccc(F)c(Cl)c3)ncn2)cc1 [Example 63],0.009
10,COc1cccc(CNC(=O)c2cc(C(=O)NCc3ccc(C(=O)N4CCC(O)CC4)cc3)ncn2)c1 [Example 67],0.015
11,O=C(NCc1ccc(C(=O)N2CCC(O)CC2)cc1)c1cc(C(=O)NCc2ccc3c(c2)CCO3)ncn1 [Example 68],0.022
12,Cc1cc(CNC(=O)c2cc(C(=O)NCc3ccc(C(=O)N4CCC(O)CC4)cc3)ncn2)ccc1F [Example 69],0.032
13,Cc1cc(CNC(=O)c2cc(C(=O)NCc3ccc(C(=O)N4CCSCC4)cc3)ncn2)ccc1F [Example 70],0.024
14,COc1cccc(CNC(=O)c2cc(C(=O)NCc3ccc(C(=O)N4CCSCC4)cc3)ncn2)c1 [Example 71],0.009
15,O=C(NCc1ccc(C(=O)N2CCSCC2)cc1)c1cc(C(=O)NCc2ccc3c(c2)CCO3)ncn1 [Example 72],0.01
16,COc1cccc(CNC(=O)c2cc(C(=O)NCc3ccc(C(=O)N4CCNC(=O)C4)cc3)ncn2)c1 [Example 73],0.025
17,O=C1CN(C(=O)c2ccc(CNC(=O)c3cc(C(=O)NCc4ccc5c(c4)CCO5)ncn3)cc2)CCN1 [Example 74],0.03
18,Cc1cc(CNC(=O)c2cc(C(=O)NCc3ccc(C(=O)N4CCNC(=O)C4)cc3)ncn2)ccc1F [Example 75],0.07
19,O=C(NCCO)c1ccc(CNC(=O)c2cc(C(=O)NCc3ccc4c(c3)CCO4)ncn2)cc1 [Example 75a],0.034

row,Compound,IC50 [µM]
1,Cc1cc(CNC(=O)c2cc(C(=O)NCc3ccc(C(=O)NCCO)cc3)ncn2)ccc1F [Example 76],0.023
2,Cc1cc(CNC(=O)c2cc(C(=O)NCc3ccc(C(=O)NC#N)cc3)ncn2)ccc1F [Example 78],0.003
3,O=C(NCc1ccncc1)c1ccc(CNC(=O)c2cc(C(=O)NCc3ccc4c(c3)CCO4)ncn2)cc1 [Example 82],0.03
4,Cc1cc(CNC(=O)c2cc(C(=O)NCc3ccc(NC(=O)NS(C)(=O)=O)cc3)ncn2)ccc1F [Example 83],0.005
5,CS(=O)(=O)NC(=O)Nc1ccc(CNC(=O)c2cc(C(=O)NCc3ccc4c(c3)CCO4)ncn2)cc1 [Example 84],0.0032
6,N#CNC(=O)c1ccc(CNC(=O)c2cc(C(=O)NCc3ccc4c(c3)CCO4)ncn2)cc1 [Example 85],0.0035
7,COc1cccc(CNC(=O)c2cc(C(=O)NCc3ccc(C(=O)NC#N)cc3)ncn2)c1 [Example 86],0.0025
8,Cc1cc(CNC(=O)c2cc(C(=O)NCc3ccc(C(=O)N4CCOCC4)cc3)ncn2)ccc1F [Example 87],0.024
9,COc1cccc(CNC(=O)c2cc(C(=O)NCc3cccc(NC(=O)NS(C)(=O)=O)c3)ncn2)c1 [Example 88],0.033
10,COc1cccc(CNC(=O)c2cc(C(=O)NCc3ccc(C(=O)NO)cc3)ncn2)c1 [Example 89],0.018
11,Cc1cc(CNC(=O)c2cc(C(=O)NCc3ccc(C(=O)NO)cc3)ncn2)ccc1F [Example 93],0.02
12,O=C(NO)c1ccc(CNC(=O)c2cc(C(=O)NCc3ccc4c(c3)CCO4)ncn2)cc1 [Example 94],0.02
13,COc1cccc(CNC(=O)c2cc(C(=O)NCc3ccc(C(=O)NC(C)(C)C)cc3)ncn2)c1 [Example 96],0.05
14,O=C(O)CNC(=O)c1ccc(CNC(=O)c2cc(C(=O)NCc3ccc4c(c3)CCO4)ncn2)cc1 [Example 98],0.02
15,Cc1cc(CNC(=O)c2cc(C(=O)NCc3ccc(C(=O)NCCN4CCCC4)cc3)ncn2)ccc1F [Example 99],0.05
16,COc1cccc(CNC(=O)c2cc(C(=O)NCc3ccc(NC(=O)NS(C)(=O)=O)cc3)ncn2)c1 [Example 101],0.002
17,Cc1cc(CNC(=O)c2cc(C(=O)NCc3ccc(C(=O)NCCN4CCOCC4)cc3)ncn2)ccc1F [Example 105],0.023
18,COC(=O)CNC(=O)c1ccc(CNC(=O)c2cc(C(=O)NCc3ccc(F)c(C)c3)ncn2)cc1 [Example 106],0.04
19,COc1cccc(CNC(=O)c2cc(C(=O)NCc3ccc(C(=O)NC4CCNCC4)cc3)ncn2)c1 [Example 109],0.05

row,Compound,IC50 [µM]
1,Cc1cc(CNC(=O)c2cc(C(=O)NCc3ccc4c(c3)OCCN4C)ncn2)ccc1F [Example 112],0.045
2,COc1cccc(CNC(=O)c2cc(C(=O)NCc3ccc(C(=O)N4CCN(C)CC4)cc3)ncn2)c1 [Example 114],0.05
3,COc1cccc(CNC(=O)c2cc(C(=O)NCc3ccc(C(=O)N4CCN(c5ccncc5)CC4)cc3)ncn2)c1 [Example 115],0.02
4,COc1cccc(CNC(=O)c2cc(C(=O)NCc3ccc(NC(=O)NS(=O)(=O)c4ccc(C)cc4)cc3)ncn2)c1 [Example 118],0.0024
5,CN1CCN(C(=O)c2ccc(CNC(=O)c3cc(C(=O)NCc4ccc5c(c4)CCO5)ncn3)cc2)CC1 [Example 119],0.035
6,COc1cccc(CNC(=O)c2cc(C(=O)NCc3ccc(NC(=O)NS(=O)(=O)c4ccccc4)cc3)ncn2)c1 [Example 121],0.03
7,O=C(NCCN1CCOCC1)c1ccc(CNC(=O)c2cc(C(=O)NCc3ccc4c(c3)CCO4)ncn2)cc1 [Example 122],0.043
8,COc1cccc(CNC(=O)c2cc(C(=O)NCc3ccc(NC(=O)NC(=O)C4CCCCC4)cc3)ncn2)c1 [Example 125],0.004
9,COc1cccc(CNC(=O)c2cc(C(=O)NCc3ccc(NC(=O)NC(=O)c4cccnc4)cc3)ncn2)c1 [Example 126],0.0023
10,COc1cccc(CNC(=O)c2cc(C(=O)NCc3ccc(NC(=O)NC(=O)C(C)C)cc3)ncn2)c1 [Example 127],0.0033
11,COc1cccc(CNC(=O)c2cc(C(=O)NCc3ccc(NC(=O)CN4CCCC4)cc3)ncn2)c1 [Example 128],0.06
12,O=C(NCc1ccc2c(c1)CCO2)c1cc(C(=O)NCc2cc(Cl)cs2)ncn1 [Example 129],0.022
13,O=C(NCc1ccc(OCCN2CCOCC2)cc1)c1cc(C(=O)NCc2ccc3c(c2)CCO3)ncn1 [Example 135],0.02
14,COc1cccc(CNC(=O)c2cc(C(=O)NCc3ccc(NC(=O)NC4CCCCC4)cc3)ncn2)c1 [Example 136],0.02
15,COc1cccc(CNC(=O)c2cc(C(=O)NCc3ccc(NC(=O)Nc4cc(Cl)nc(Cl)c4)cc3)ncn2)c1 [Example 137],0.04
16,COc1cccc(CNC(=O)c2cc(C(=O)NCc3ccc(NC(=O)NC(C)(C)C)cc3)ncn2)c1 [Example 138],0.05
17,CC#CCOC(=O)Nc1ccc(CNC(=O)c2cc(C(=O)NCc3cccc(OC)c3)ncn2)cc1 [Example 139],0.01
18,C#CCOC(=O)Nc1ccc(CNC(=O)c2cc(C(=O)NCc3cccc(OC)c3)ncn2)cc1 [Example 144],0.009
19,COc1cccc(CNC(=O)c2cc(C(=O)NCc3ccc(NC(=O)NC(=O)c4ccccc4)cc3)ncn2)c1 [Example 147],0.003
